In patent publication US20050080076A1 (Xanodyne Pharmacal, Inc., priority 2003, published 2005):

Assays:
Dopamine D4.2 = target: T1, Dopamine D4.2 (Homo sapiens, UniProt P21917, DEL271-302); test: Receptor binding, Dopamine D4.2
T1 sequence (P21917 with tags, fused parts or gaps DEL271-302): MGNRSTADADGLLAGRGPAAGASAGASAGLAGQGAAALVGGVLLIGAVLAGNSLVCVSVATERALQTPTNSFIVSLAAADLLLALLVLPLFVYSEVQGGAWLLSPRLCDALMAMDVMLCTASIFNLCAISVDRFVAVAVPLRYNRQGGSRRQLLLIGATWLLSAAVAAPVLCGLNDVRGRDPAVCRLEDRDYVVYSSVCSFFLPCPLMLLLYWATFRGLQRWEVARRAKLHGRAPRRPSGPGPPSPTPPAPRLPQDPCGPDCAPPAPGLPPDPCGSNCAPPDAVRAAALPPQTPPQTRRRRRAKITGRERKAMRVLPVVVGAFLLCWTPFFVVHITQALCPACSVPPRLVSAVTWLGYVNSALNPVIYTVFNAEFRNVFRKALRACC
Protocol: (§1) Receptor-ligand binding studies were performed as known to one skilled in the art. Compounds evaluated were LMP, the parent compound, the NDM LMP metabolite of LMP, and the sulfoxide metabolite of LMP. These studies verified receptor binding and affinity by the parent compound, as well as identified other potential receptors for the parent compound and its metabolites, and identified and verified receptors and receptor affinity for the metabolites.
(§2) Dopamine receptor affinity included binding to D1, D2, D3, D4, and D5 receptors. Serotonin receptor affinity included binding to 5-HT1A, 5-HT2A, 5-HT2B, 5-HT2, 5-HT5A, 5-HT6, and 5-HT7 receptors. Alpha adrenergic receptor affinity included binding to α1A, α1B, α1C, α2A, α2B, and α2C receptors. Muscarinic receptor affinity included binding to M1, M2, M3, M4, and M5 receptors. Binding to the histamine H1 receptor, the calcium ion channel receptor, and the sodium ion channel receptor were also evaluated. In each of the tables, the following abbreviations are used: LMP indicates the parent compound levomepromazine. NDM LMP indicates the N-desmethyl (N-desmethyl) metabolite. Sulfoxide indicates the sulfoxide metabolite. […] Ki (the inhibition constants of binding) indicate binding affinity.

Serotonin 5-HT7 = Serotonin 5-HT7 (Homo sapiens, UniProt P34969); test: Receptor binding, Serotonin 5-HT7
Chain of Serotonin 5-HT7 (P34969 whole entry): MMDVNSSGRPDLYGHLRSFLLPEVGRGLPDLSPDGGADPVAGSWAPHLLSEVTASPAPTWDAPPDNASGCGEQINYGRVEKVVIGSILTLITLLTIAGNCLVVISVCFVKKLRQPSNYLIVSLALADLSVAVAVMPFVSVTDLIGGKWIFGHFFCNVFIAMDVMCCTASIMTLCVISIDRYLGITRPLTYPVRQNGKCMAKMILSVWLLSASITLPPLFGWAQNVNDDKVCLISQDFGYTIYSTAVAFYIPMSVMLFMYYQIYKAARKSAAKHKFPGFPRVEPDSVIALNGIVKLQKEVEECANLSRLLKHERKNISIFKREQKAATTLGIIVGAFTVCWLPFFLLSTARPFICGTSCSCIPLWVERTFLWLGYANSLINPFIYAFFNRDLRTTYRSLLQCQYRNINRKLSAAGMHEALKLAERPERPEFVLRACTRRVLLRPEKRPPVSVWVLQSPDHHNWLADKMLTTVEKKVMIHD
Protocol: as §1, §2

Muscarinic M3 = Muscarinic M3 (Homo sapiens, UniProt P20309); test: Receptor binding, Muscarinic M3
Chain of Muscarinic M3 (P20309 whole entry): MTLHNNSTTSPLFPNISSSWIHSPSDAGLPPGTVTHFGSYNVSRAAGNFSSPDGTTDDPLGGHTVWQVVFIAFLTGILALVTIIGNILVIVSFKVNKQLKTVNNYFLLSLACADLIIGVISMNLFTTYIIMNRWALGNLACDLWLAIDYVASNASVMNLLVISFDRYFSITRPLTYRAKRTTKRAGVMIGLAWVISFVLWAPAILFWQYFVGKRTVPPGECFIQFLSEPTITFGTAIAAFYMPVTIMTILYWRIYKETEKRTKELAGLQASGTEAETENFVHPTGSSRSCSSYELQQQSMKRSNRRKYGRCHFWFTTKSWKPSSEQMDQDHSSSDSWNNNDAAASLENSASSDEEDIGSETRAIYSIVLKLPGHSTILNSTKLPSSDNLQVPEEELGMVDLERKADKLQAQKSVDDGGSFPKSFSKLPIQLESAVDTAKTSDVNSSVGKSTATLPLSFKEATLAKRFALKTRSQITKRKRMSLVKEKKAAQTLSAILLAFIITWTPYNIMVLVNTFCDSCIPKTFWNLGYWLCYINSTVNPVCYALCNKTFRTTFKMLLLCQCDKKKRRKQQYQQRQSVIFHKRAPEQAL
Protocol: as §1, §2

Muscarinic M5 = target: T2, Muscarinic M5 (Homo sapiens, UniProt P08912); test: Receptor binding, Muscarinic M5
T2 sequence (P08912 1-532): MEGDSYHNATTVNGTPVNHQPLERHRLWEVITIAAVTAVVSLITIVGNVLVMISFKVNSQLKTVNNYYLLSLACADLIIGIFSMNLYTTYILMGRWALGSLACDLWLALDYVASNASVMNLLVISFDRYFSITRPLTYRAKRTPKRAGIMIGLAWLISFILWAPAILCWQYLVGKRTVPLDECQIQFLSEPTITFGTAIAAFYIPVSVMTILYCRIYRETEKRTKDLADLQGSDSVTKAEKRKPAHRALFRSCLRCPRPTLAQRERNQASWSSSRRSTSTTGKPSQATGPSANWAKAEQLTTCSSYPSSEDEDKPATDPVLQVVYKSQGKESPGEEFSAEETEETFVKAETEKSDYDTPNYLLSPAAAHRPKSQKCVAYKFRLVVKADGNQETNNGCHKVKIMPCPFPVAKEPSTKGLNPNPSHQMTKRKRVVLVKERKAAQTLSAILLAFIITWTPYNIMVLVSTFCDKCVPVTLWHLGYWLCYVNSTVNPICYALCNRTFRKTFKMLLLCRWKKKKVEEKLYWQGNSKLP
Protocol: as §1, §2

α2 adrenergic receptors = test: Receptor affinity summary, α2 adrenergic receptors; format: binding; parameters: key to Relative Affinity: ≧ indicates greater or equal affinity; = indicates about the same affinity; − indicates no affinity; settings: for Relative Affinity: α2-Adrenergic
Protocol: as §1, §2

[1] = Serum concentrations and bioavailability after LMP administration; format: in vivo
Dopamine D1 = Dopamine D1 (Homo sapiens, UniProt P21728); test: Receptor binding, Dopamine D1
Chain of Dopamine D1 (P21728 whole entry): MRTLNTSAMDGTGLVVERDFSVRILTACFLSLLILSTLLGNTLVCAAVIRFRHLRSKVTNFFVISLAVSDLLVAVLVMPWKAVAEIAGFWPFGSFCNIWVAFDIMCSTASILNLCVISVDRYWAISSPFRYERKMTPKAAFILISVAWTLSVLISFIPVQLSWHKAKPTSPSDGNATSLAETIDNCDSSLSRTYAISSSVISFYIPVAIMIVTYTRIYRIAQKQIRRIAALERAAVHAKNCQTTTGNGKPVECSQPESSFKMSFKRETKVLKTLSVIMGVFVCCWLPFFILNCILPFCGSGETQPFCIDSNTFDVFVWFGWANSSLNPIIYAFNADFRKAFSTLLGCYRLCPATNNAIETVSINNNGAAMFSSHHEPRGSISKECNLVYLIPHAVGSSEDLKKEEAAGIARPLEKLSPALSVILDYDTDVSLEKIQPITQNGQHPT
Protocol: Receptor-ligand binding studies were performed as known to one skilled in the art.
as §2, with “In each of the tables, the following abbreviations are used: LMP indicates the parent compound levomepromazine. NDM LMP indicates the N-desmethyl (N-desmethyl) metabolite.” left out

Adrenergic α2A = Adrenergic α2A (Homo sapiens, UniProt P08913); test: Receptor binding, Adrenergic α2A
Chain of Adrenergic α2A (P08913 whole entry): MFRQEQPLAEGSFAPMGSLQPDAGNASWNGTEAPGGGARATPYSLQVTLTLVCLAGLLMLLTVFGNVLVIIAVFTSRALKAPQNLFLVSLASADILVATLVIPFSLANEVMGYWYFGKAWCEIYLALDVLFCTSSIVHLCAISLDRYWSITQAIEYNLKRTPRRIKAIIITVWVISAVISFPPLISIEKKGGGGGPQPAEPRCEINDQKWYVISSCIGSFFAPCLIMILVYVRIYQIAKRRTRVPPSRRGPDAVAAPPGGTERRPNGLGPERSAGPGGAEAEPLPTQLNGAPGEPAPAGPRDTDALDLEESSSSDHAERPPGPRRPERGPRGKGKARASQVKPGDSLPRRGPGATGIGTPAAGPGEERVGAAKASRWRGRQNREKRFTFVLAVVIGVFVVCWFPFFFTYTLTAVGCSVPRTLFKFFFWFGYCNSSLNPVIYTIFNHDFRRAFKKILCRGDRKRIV
Protocol: as §1, §2

dopamine receptors = test: Receptor affinity summary, dopamine receptors; format: binding; parameters: key to Relative Affinity: ≧ indicates greater or equal affinity; = indicates about the same affinity; − indicates no affinity; settings: for Relative Affinity: Dopamine
Protocol: as §1, §2

serotonin receptors = test: Receptor affinity summary, serotonin receptors; format: binding; parameters: key to Relative Affinity: ≧ indicates greater or equal affinity; = indicates about the same affinity; − indicates no affinity; settings: for Relative Affinity: Serotonin
Protocol: as §1, §2

Serum protein binding = format: in vitro ADME
[2] = system: Primary human hepatocytes; test: In vitro metabolism in primary human hepatocytes; format: in vitro ADME
P-glycoprotein (p-gp) = target: T3, P-glycoprotein (p-gp) (Homo sapiens, UniProt P08183); test: P-glycoprotein efflux in CACO-2 Model; format: in vitro ADME
T3 construct: using a human colon carcinoma cell line (CACO-2 Model); endogenous in cells; host or cells: CACO-2 (human colon carcinoma cell line)
T3 sequence (P08183 whole entry): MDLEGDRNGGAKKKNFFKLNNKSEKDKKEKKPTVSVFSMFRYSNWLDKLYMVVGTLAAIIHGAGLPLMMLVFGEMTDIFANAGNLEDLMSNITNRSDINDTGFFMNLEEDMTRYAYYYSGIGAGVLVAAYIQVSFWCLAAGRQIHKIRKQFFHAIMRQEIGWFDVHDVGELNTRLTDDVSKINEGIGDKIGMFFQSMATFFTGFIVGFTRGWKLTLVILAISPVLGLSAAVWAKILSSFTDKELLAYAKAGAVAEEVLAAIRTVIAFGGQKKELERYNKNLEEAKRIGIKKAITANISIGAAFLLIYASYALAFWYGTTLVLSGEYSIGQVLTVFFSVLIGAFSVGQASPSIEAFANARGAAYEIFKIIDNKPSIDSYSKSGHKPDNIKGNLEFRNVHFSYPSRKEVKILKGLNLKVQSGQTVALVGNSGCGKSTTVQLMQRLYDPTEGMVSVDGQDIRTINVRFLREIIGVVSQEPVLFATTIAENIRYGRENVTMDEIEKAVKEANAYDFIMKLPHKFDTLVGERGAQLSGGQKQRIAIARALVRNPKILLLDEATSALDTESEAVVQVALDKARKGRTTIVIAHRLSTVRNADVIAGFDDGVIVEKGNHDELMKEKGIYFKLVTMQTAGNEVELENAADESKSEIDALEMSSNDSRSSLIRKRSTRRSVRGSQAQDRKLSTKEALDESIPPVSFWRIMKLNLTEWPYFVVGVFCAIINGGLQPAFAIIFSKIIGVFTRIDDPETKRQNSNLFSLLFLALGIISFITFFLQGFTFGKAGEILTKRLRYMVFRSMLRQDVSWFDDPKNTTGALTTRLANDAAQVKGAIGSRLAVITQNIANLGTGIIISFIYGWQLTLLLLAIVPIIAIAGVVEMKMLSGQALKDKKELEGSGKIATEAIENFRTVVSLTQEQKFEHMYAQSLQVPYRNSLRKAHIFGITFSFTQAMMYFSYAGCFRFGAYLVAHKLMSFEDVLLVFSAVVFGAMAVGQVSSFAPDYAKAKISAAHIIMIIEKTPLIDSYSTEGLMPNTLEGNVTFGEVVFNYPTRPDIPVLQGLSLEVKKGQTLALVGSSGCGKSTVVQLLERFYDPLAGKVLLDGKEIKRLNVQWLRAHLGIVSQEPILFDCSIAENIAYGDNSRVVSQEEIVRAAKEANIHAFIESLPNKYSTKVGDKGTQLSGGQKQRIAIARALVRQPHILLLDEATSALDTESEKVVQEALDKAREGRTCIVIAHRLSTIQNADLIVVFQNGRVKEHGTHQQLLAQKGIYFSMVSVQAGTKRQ

What does the source list for `COc1ccc2c(c1)N(C[C@H](C)CN(C)C)c1ccccc1S2` [LMP, Levomepromazine]?
Ki (Dopamine D4.2): 769 nM; Ki (Serotonin 5-HT7): 24 nM; Ki (Muscarinic M3): 39 nM; Ki (Muscarinic M5): 61 nM; binding affinity to α2 adrenergic receptors (in words) (α2 adrenergic receptors): demonstrated binding; bioavailability ([1]; in vivo, 25 mg oral formulation compared to 25 mg intravenous dose, read-out: absolute bioavailability): ~20%

Which results are given for `CNCC(C)CN1c2ccccc2Sc2ccc(OC)cc21` (stereo not drawn) [NDM LMP, R(+) 2-methoxy-10-2-methyl-3-monomethylaminopropyl phenothiazine]?
Ki (Dopamine D1): 99 nM; Ki (Dopamine D4.2): 3110 nM; Ki (Serotonin 5-HT7): 18 nM; Ki (Adrenergic α2A): 239 nM; Ki (Muscarinic M3): 47 nM; Ki (Muscarinic M5): 60 nM; Relative Affinity (dopamine receptors): LMP = NDM LMP; Relative Affinity (serotonin receptors): LMP = NDM LMP; binding affinity to α2 adrenergic receptors (in words) (α2 adrenergic receptors): demonstrated binding; Relative Affinity (α2 adrenergic receptors): LMP = NDM LMP; fraction unbound (Serum protein binding; serum): 0.01; Phase I biotransformation [2]: metabolized to only one putative primary amine metabolite; Phase II biotransformation (conjugation) [2]: did not appear to undergo any Phase II biotransformation; metabolic stability relative to LMP [2]: much more metabolically stable than its LMP parent compound; sulfoxide metabolite formation [2]: no detectable sulfoxide metabolites were formed; transport by P-glycoprotein relative to parent LMP (P-glycoprotein (p-gp)): to a lesser degree than the parent LMP; inhibition of efflux relative to parent LMP (P-glycoprotein (p-gp); in the presence of p-gp inhibitor verapamil): at least one-half lower; relative efflux to influx ratio, reduction versus parent LMP (P-glycoprotein (p-gp); through the enterocyte, less than parent LMP): at least 50%

With `COc1ccc2c(c1)N(C[C@H](C)CN(C)C)c1ccccc1[S+]2[O-]` (some centres unmarked) [Sulfoxide, levomepromazine sulfoxide] as the compound, how does the Ki (Dopamine D1) read?
The Ki was > 10000 nM.

What about the Ki (Dopamine D4.2) of the same compound?
Its Ki is > 10000 nM.

What about the Ki (Serotonin 5-HT7) of the same compound?
Its Ki is > 10000 nM.

What about the Ki (Adrenergic α2A) of the same compound?
Its Ki is > 10000 nM.

And the Ki (Muscarinic M3)?
Its Ki is 551 nM.

What about the Ki (Muscarinic M5) of the same compound?
Its Ki is 481 nM.

And the “binding affinity to dopamine receptors (in words)” value (dopamine receptors)?
The value was “essentially no binding affinity”.

And the “Relative Affinity” value (dopamine receptors)?
The value was “−”.

What about the “binding affinity to serotonin receptors (in words)” value (serotonin receptors) of the same compound?
Its value is “essentially no binding affinity”.

And the “Relative Affinity” value (serotonin receptors)?
The value was “−”.

What about the “binding affinity to α2 adrenergic receptors (in words)” value (α2 adrenergic receptors) of the same compound?
Its value is “no affinity was detected”.

And the “Relative Affinity” value (α2 adrenergic receptors)?
Its value is “−”.

What about the “free fraction (less protein binding), relative” value (Serum protein binding; relative to LMP or NDM LMP) of the same compound?
The value was 20 fold.

What about the “sulfoxide detection after LMP” value ([1]; 25 mg LMP intramuscularly) of the same compound?
Its value is “no sulfoxide was detected”.

And the “sulfoxide concentrations relative to parent compound” value ([1]; LMP 50 mg to 350 mg orally daily for one week)?
The value was 2.5 times.

And the “sulfoxide formation after LMP” value ([1]; LMP intravenously, bioavailability study)?
The value was “sulfoxide formation was detected although to a much lower extent compared to the oral formulation”.

And the “total serum concentrations relative to parent LMP or NDM LMP” value ([1]; in vivo)?
The value was 1.5-3.0 fold.
